Experimental data taken from US6558686B1, “Method of coating medical devices with a combination of antiseptics and antiseptic coating therefor” (Baylor College of Medicine, priority 1995, dated 2003).

Key:
Pseudomonas = assay: Antimicrobial activity of coated silicone urinary catheters, initial and after 1 week in urine (Example 5); type: cell-based, Pseudomonas aeruginosa; settings: for Pseudomonas 1 week (antimicrobial activity of coated catheter): catheter segments incubated in urine for 1 week at 37° C.; for Pseudomonas Initial (antimicrobial activity of coated catheter): silicone urinary catheter
Description: (§1) A first antiseptic solution was formed by dissolving chloroxylenol (200 mg/ml) in an 85:15 solution of butyl acetate: methanol that has NaOH (5 mg/ml of methanol). A second antiseptic solution was formed by dissolving thymol (150 mg/ml) in an 85:15 solution of butyl acetate: methanol that has NaOH (5 mg/ml of methanol). A third antiseptic solution was formed by dissolving chloroxylenol (200 mg/ml) and thymol (150 mg/ml) in an 85:15 solution of butyl acetate: methanol that has NaOH (5 mg/ml of methanol). Eighteen-french silicone urinary catheters were dipped in one of the above coating solutions for 1 hour at 45° C. The catheters were allowed to dry overnight then rinsed.

Candida albicans [1] = assay: Zones of inhibition, coated stainless steel cylinders on agar (Example 1); type: cell-based; settings: coated stainless steel cylinder, 18-24 hours at 37° C.
Description: (§2) Antiseptic coatings were applied to each of four stainless steel cylinders (0.5″ diameter×2″ length), using each of the above four antiseptic solutions, by dipping each cylinder for 1 minute at 50° C. in the respective solution.

Staph. epidermidis = assay: as above; type: cell-based, Staphylococcus epidermidis; settings: coated stainless steel cylinder, 18-24 hours at 37° C.
Description: as §2

Pseud. aeruginosa = assay: as above; type: cell-based, Pseudomonas aeruginosa; settings: coated stainless steel cylinder, 18-24 hours at 37° C.
Description: as §2

E. coli = assay: Antimicrobial activity of coated silicone urinary catheters, initial and after 1 week in urine (Example 5); type: cell-based; settings: for E. coli 1 week (antimicrobial activity of coated catheter): catheter segments incubated in urine for 1 week at 37° C.; for E. coli Initial (antimicrobial activity of coated catheter): silicone urinary catheter
Description: as §1

Enterococcus = assay: as above; type: cell-based; settings: for Enterococcus 1 week (antimicrobial activity of coated catheter): catheter segments incubated in urine for 1 week at 37° C.; for Enterococcus Initial (antimicrobial activity of coated catheter): silicone urinary catheter
Description: as §1

Candida albicans [2] = assay: as above; type: cell-based; settings: for Candida albicans 1 week (antimicrobial activity of coated catheter): catheter segments incubated in urine for 1 week at 37° C.; for Candida albicans Initial (antimicrobial activity of coated catheter): silicone urinary catheter
Description: as §1

S. epidermidis [3] = assay: as above; type: cell-based; settings: for S. epidermidis 1 week (antimicrobial activity of coated catheter): catheter segments incubated in urine for 1 week at 37° C.; for S. epidermidis Initial (antimicrobial activity of coated catheter): silicone urinary catheter
Description: as §1

[4] = cited from earlier work
P. aerug = assay: Zones of inhibition, single-layer coated stainless steel cylinders (Example 4); type: cell-based; settings: single-layer coated stainless steel cylinder, 18-24 hours at 37° C.
Description: (§3) Stainless steel cylinders (0.5×2″) were dipped in one of the three antiseptic coating solutions for 1 minute at 50° C. Devices were allowed to dry for at least 4 hours, then placed into agar plates that had been freshly overlaid with one of the microorganisms shown below in Table 4. After 18-24 hours of incubation at 37° C., the following measurements of zones of inhibition were recorded.

S. epidermidis [5] = assay: as above; settings: single-layer coated stainless steel cylinder, 18-24 hours at 37° C.
Description: as §3

Candida albicans [6] = assay: as above; type: cell-based; settings: single-layer coated stainless steel cylinder, 18-24 hours at 37° C.
Description: as §3

Structure (SMILES)	Pseudomonas 1 week (antimicrobial activity of coated catheter) (Pseudomonas)	Pseudomonas Initial (antimicrobial activity of coated catheter) (Pseudomonas)	Zones of inhibition Candida albicans (Candida albicans [1]) [m.m.]	Zones of inhibition Staph. epidermidis (Staph. epidermidis) [m.m.]	Zones of inhibition Pseud. aeruginosa (Pseud. aeruginosa) [m.m.]	E. coli 1 week (antimicrobial activity of coated catheter) (E. coli)	E. coli Initial (antimicrobial activity of coated catheter) (E. coli)	Enterococcus 1 week (antimicrobial activity of coated catheter) (Enterococcus)	Enterococcus Initial (antimicrobial activity of coated catheter) (Enterococcus)	Candida albicans 1 week (antimicrobial activity of coated catheter) (Candida albicans [2])	Candida albicans Initial (antimicrobial activity of coated catheter) (Candida albicans [2])	S. epidermidis 1 week (antimicrobial activity of coated catheter) (S. epidermidis [3])	S. epidermidis Initial (antimicrobial activity of coated catheter) (S. epidermidis [3])	Solubility in acetic acid ([4]; acetic acid)	Solubility in formic acid ([4]; formic acid)	Solubility in organic solvents ([4]; organic solvents)	Zones of inhibition P. aerug (P. aerug) [m.m.]	Zones of inhibition S. epidermidis (S. epidermidis [5]) [m.m.]	Zones of inhibition Candida albicans (Candida albicans [6]) [m.m.]
Cc1ccc(C(C)C)c(O)c1 [Thymol, 5-methyl-2 isopropyl phenol]	0	11	14	23	18	28	35	17	28	38	60	30	38						
[H]/N=C(\N/C(=N/[H])NCCCCCCNC(=N)NC(=N)Nc1ccc(Cl)cc1)Nc1ccc(Cl)cc1 [Chlorhexidine]			26	31	28									soluble	soluble	generally not soluble	25	30	28
Cc1cc(O)cc(C)c1Cl [Chloroxylenol, 4-chloro, 3,5-dimethyl phenol]	0	10				11	15	10	13	26	30	20	25						
